pIC50: −log10 of the molar value. Like-named read-outs stand apart in the source and are kept apart here.
Tested on: IL-2 promoter/enhancer
Assay: IL-2 promoter assay (luciferase reporter in J.1F/C6 Jurkat cells)
Format: cell-based
Details: Homo sapiens
Source text: The IL-2 promoter assay measures transcriptional activation of a luciferase reporter gene which has been placed under control of the IL-2 promoter/enhancer. All the known regulatory features of the IL-2 gene are contained within a ˜300 bp sequence immediately upstream of the open reading frame. The region −328 to +35 relative to the transcription start site of the IL-2 gene is obtained by […] of human genomic DNA and is subcloned into the promoterless luciferase reporter vector pGL2-Basic (Promega). The resulting construct, pIL2P-luc, and a vector containing a neomycin resistance gene, pcDNA/Neo (Invitrogen), are linearized and stably transfected into Jurkat cells (a human T cell line) by electroporation.
For screening compounds, the cells are pelleted by centrifugation, washed once with PBS, resuspended in RPMI (phenol red-free) containing 5% FBS, and dispensed into 96-well, white microtiter plates (Packard) at 50,000 cells/well. The cells are pre-incubated with compounds (1 μg/ml) for 15 min prior to addition of ionomycin (1 μg/ml) and PMA (10 ng/ml) in a final volume of 100 μl. Following a 5 hr incubation at 37° C. in a humidified incubator, 100 μl of Luc-Lite lysis buffer/luciferase assay buffer (Promega) is added and luminescence measured using a Packard TopCount scintillation counter/luminometer.

[1] = J.1F/C6 Jurkat cells stimulated with ionomycin and PMA, luciferase reporter, read-out: IC50

| pIC50 (J.1F/C6 Jurkat cells treated with ionomycin and PMA, cell line validation, read-out: IC50, inhibition of luciferase activity) | pIC50 [1] | Compound |
| --- | --- | --- |
| 9.52 |  | C=CC[C@@H]1/C=C(\C)C[C@H](C)C[C@H](OC)[C@H]2O[C@@](O)(C(=O)C(=O)N3CCCC[C@H]3C(=O)O[C@H](/C(C)=C/[C@@H]3CC[C@@H](O)[C@H](OC)C3)[C@H](C)[C@@H](O)CC1=O)[C@H](C)C[C@@H]2OC [FK506, reference compound] |
|  | > 5.00 | CSc1nc(-c2ccncc2)nn1-c1ccc(NCc2sccc2C)cc1 [Example 2, (3-Methylthien-2-ylmethyl)-[4-(5-methylthio-3-pyridin-4-yl-1H-1,2,4-triazol-1-yl)phenyl]amine] |
|  | > 5.00 | CSc1nc(-c2ccncc2)nn1-c1ccc(NC(=O)c2cccnc2)cc1 [Example 1] |

Source: patent US6451820B1, “Substituted 1-(4-aminophenly)triazoles and their use as anti-inflammatory agents” (Boehringer Ingelheim Pharmaceuticals, Inc., priority 2000, dated 2002)
